In US20230052017A1, “New compounds for treatment of diseases related to DUX4 expression” (Facio Intellectual Property B.V., priority 2019, published 2023):

Each compound was assayed on DUX4 (assay: DUX4 repression assay in primary FSHD cells (protocol of Example 2 of WO2019/115711)). Settings: incubated 72 hours, reference compounds.
Format: cell-based, human
Excerpt: Following the central role of DUX4 in the consensus disease hypothesis for FSHD, a therapeutic approach with a disease-modifying potential is expected to rely on the inhibition of DUX4. The inventors have identified the compounds according to the invention as being able to achieve DUX4 repression in muscle cells. This invention has been made using primary FSHD patient-derived muscle cells. Because of the primate-specificity of the FSHD locus and questionable relevance of recombinant, immortalized, or tumorigenic cell or animal models to study endogenous DUX4 regulatory mechanisms, primary patient-derived muscle cells are the most relevant disease model. Assays based on immortalized cells bear the risk of altered epigenomes, thereby limiting their relevance in studying the endogenous regulation of DUX4 expression. Particularly the subtelomeric location of D4Z4 and the importance of the D4Z4 epigenome in the stability of DUX4 repression (Stadler et al., 2013, DOI: 10.1038/nsmb.2571) underscore the necessity of using primary muscle cells to discover physiologically relevant drug targets that regulate the expression of DUX4.
The DUX4 repression of compounds of general formula (I) was assayed following a known protocol (the protocol of Example 2 of WO2019/115711). Several compounds were incubated with primary FSHD cells for 72 hours. Results are shown in Table 4, showing DUX4 Count % inhibition.

Going from `CN1CCN(C(=O)Cc2nn(C(C)(C)C)c(-c3ccc(F)cc3)c2-c2ccncc2)CC1` [Compound 106, 2-[1-tert-butyl-5-(4-fluorophenyl)-4-(pyridin-4-yl)-1H-pyrazol-3-yl]-1-(4-methylpiperazin-1-yl)ethan-1-one] to `CN1CCN(C(=O)Cn2cnc(-c3ccc(F)cc3)c2-c2cccnc2)CC1` [Compound 107, 2-[4-(4-fluorophenyl)-5-(pyridin-3-yl)-1H-imidazol-1-yl]-1-(4-methylpiperazin-1-yl)ethan-1-one], the “DUX4 count % inhibition” value falls from 17.3% to 10.7%.

With `O=C(Cn1cnc(-c2ccc(F)cc2)c1-c1cccnc1)N1CCNCC1` [Compound 108, 2-[4-(4-fluorophenyl)-5-(pyridin-3-yl)-1H-imidazol-1-yl]-1-(piperazin-1-yl)ethan-1-one] the “DUX4 count % inhibition” value was 6.6%.
